According to patent US11530244B2, “Cyclic polypeptides for PCSK9 inhibition” (priority 2018, dated 2022):
Starred links: 1 amine or outer side, 2 acyl side, 3 side chain; linkers in the order of their positions; H or OH if unused. Positions of bridges follow the written chain, without caps; N, C: chain ends. Non-standard residues stand in square brackets, D forms with d. Residues, ends and D or L forms follow the SMILES beside them. Pro(3R,4S-CMe2) = CC1(C)[C@@H]2[C@@H](C(=O)O)NC[C@@H]21; Phe(4-COOH) = N[C@@H](Cc1ccc(C(=O)O)cc1)C(=O)O; Trp(5-F) = N[C@@H](Cc1c[nH]c2ccc(F)cc12)C(=O)O; Trp(6-F) = N[C@@H](Cc1c[nH]c2cc(F)ccc12)C(=O)O; X3 = O=C(CCSCc1cc(F)cc(CSCCN[*:1])c1)[*:2]; Pro(cis-4-F) = O=C(O)[C@@H]1C[C@H](F)CN1; mXylylene = c1cc(C[*:1])cc(C[*:2])c1; X35 = COc1cc(C[*:1])cc(C[*:2])c1; aThr = C[C@H](O)[C@H](N)C(=O)O; NMeV = CN[C@H](C(=O)O)C(C)C; αMeP = C[C@@]1(C(=O)O)CCCN1; Ac3c = NC1(C(=O)O)CC1; Aib = CC(C)(N)C(=O)O; Ahx = NCCCCCC(=O)O; Mpa = O=C(O)CCS

What follows are molecules tested against human PCSK9 / human LDLR EGFa domain interaction (Homo sapiens (Human), UniProt Q8NBP7) (assay: TR-FRET assay of inhibition of the PCSK9-LDLR protein-protein interaction). Details: TR-FRET, 20 nM human PCSK9, 20 nM human LDLR EGFa domain, 2 hours room temperature; read-out: IC50.
human PCSK9 / human LDLR EGFa domain interaction, sequence (Q8NBP7 153-692): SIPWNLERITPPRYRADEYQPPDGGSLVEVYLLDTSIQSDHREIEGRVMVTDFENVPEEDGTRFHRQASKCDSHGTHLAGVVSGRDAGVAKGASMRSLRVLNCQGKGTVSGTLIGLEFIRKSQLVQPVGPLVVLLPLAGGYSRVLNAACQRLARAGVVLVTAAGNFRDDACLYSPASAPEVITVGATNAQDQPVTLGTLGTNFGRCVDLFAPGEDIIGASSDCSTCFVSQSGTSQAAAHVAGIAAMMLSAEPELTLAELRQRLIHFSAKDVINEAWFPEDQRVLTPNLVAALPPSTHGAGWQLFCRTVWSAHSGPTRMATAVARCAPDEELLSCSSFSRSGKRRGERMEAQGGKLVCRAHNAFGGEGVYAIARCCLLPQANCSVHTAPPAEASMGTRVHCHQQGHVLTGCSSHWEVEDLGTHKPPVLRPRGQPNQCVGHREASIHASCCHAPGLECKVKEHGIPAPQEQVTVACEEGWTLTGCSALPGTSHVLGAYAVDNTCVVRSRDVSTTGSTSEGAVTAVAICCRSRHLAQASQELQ
human PCSK9 / human LDLR EGFa domain interaction, sequence (Q8NBP7 31-152 partner): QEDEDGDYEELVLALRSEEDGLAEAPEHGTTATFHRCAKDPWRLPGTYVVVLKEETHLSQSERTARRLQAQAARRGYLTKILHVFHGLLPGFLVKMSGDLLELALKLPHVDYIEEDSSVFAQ
Type: binding
In short: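 Compounds in dose-response are mixed with 20 nM human PCSK9 (avitag-biotinylated) and 20 nM his-tagged LDLR EGFa domain, plus 5 nM each streptavidin-Ulight and Eu-anti-6×His. After 2 h at room temperature in HEPES/NaCl/CaCl2 buffer with BSA and P20, TR-FRET is read and IC50 fitted (4-parameter).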
In the case of `COc1ccc(C[C@@H]2NC(=O)[C@H]([C@H](C)O)NC(=O)[C@@H]3C[C@H](F)CN3C(=O)[C@H](Cc3c[nH]c4cc(F)ccc34)NC(=O)[C@H](Cc3c[nH]c4ccc(F)cc34)NC(=O)[C@@H](C)NC(=O)CCCCCNC(=O)c3ccc(cc3)C[C@@H](C(N)=O)NC(=O)[C@]3(C)CCCN3C2=O)cc1` [Compound 057] ([Ahx][dA][Trp(5-F)][Trp(6-F)][Pro(cis-4-F)][aThr]Y(Me)[αMeP][Phe(4-COOH)]-NH2; lactam N-9), the IC50 is reported as 1 to 12.1 µM. For `COc1ccc(C[C@@H]2NC(=O)[C@@H]3CCCCCCCO[C@H]4C[C@@H](C(=O)N3)N(C4)C(=O)[C@H](Cc3c[nH]c4ccc(F)cc34)NC(=O)[C@H](Cc3c[nH]c4ccc(F)cc34)NC(=O)[C@@H](C)NC(=O)[C@H](CCCCN)NC(=O)CCSCc3cccc(c3)CSC[C@@H](C(N)=O)NC(=O)[C@]3(C)CCCN3C2=O)cc1` [Compound 511], the IC50 was 0.1 to 1 µM. `C[C@H]1NC(=O)[C@H](CCCCN)NC(=O)CCSCc2cc(F)cc(c2)CSCCNC(=O)[C@]2(C)CCCN2C(=O)[C@H](Cc2ccc(O)cc2)NC(=O)[C@H](Cc2cnc[nH]2)NC(=O)[C@H](CC(=O)O)NC(=O)[C@H](Cc2c[nH]c3ccc(F)cc23)NC(=O)[C@H](Cc2c[nH]c3ccc(F)cc23)NC1=O` [Compound 289] (cyclo(DHY[αMeP][X3]K[dA][Trp(5-F)][Trp(5-F)])) showed an IC50 of 21 to 50 µM. `CC(C)[C@H]1C(=O)N[C@H](C(N)=O)CSCc2cccc(c2)CSCCC(=O)N[C@@H](CCCCN)C(=O)NCC(=O)N[C@@H](Cc2c[nH]c3ccc(F)cc23)C(=O)N[C@@H](Cc2c[nH]c3ccc(F)cc23)C(=O)N[C@@H](CC(=O)O)C(=O)N[C@@H](Cc2cnc[nH]2)C(=O)N[C@@H](Cc2ccc(O)cc2)C(=O)N1C` [Compound 220] ([Mpa]KG[Trp(5-F)][Trp(5-F)]DHY[NMeV]C-NH2; linker 1-10 via mXylylene) showed an IC50 of 21 to 50 µM. Work on `CC1(C)[C@@H]2[C@H]3C(=O)N[C@H](C(N)=O)CSCc4cccc(c4)CSCCC(=O)N[C@@H](CCCCN)C(=O)NCC(=O)N[C@@H](Cc4c[nH]c5ccc(F)cc45)C(=O)N[C@@H](Cc4c[nH]c5ccc(F)cc45)C(=O)N[C@@H](CC(=O)O)C(=O)N[C@@H](Cc4c[nH]cn4)C(=O)N[C@@H](Cc4ccc(O)cc4)C(=O)N3C[C@@H]21` [Compound 201] ([Mpa]KG[Trp(5-F)][Trp(5-F)]DHY[Pro(3R,4S-CMe2)]C-NH2; linker 1-10 via mXylylene) yielded an IC50 of 1 to 12.1 µM. For `CC1(C)NC(=O)[C@H](Cc2ccc(O)cc2)NC(=O)[C@H](Cc2cnc[nH]2)NC(=O)[C@H](CC(=O)O)NC(=O)[C@H](Cc2c[nH]c3ccc(F)cc23)NC(=O)[C@H](Cc2c[nH]c3ccc(F)cc23)NC(=O)CNC(=O)[C@H](CCCCN)NC(=O)CCSCc2cccc(c2)CSC[C@@H](C(N)=O)NC1=O` [Compound 218] ([Mpa]KG[Trp(5-F)][Trp(5-F)]DHY[Aib]C-NH2; linker 1-10 via mXylylene), the IC50 was 0.1 to 1 µM. In the case of `NCCCC[C@@H]1NC(=O)CCSCc2cccc(c2)CSC[C@@H](C(N)=O)NC(=O)C2(CC2)NC(=O)[C@H](Cc2ccc(O)cc2)NC(=O)[C@H](Cc2c[nH]cn2)NC(=O)[C@H](CC(=O)O)NC(=O)[C@H](Cc2c[nH]c3ccc(F)cc23)NC(=O)[C@H](Cc2c[nH]c3ccc(F)cc23)NC(=O)CNC1=O` [Compound 195] ([Mpa]KG[Trp(5-F)][Trp(5-F)]DHY[Ac3c]C-NH2; linker 1-10 via mXylylene), the IC50 is reported as 21 to 50 µM. With `COc1cc2cc(c1)CSC[C@@H](C(N)=O)NC(=O)[C@@H]1CCCN1C(=O)[C@H](Cc1ccc(O)cc1)NC(=O)[C@H](Cc1c[nH]cn1)NC(=O)[C@H](CC(=O)O)NC(=O)[C@H](Cc1c[nH]c3ccc(F)cc13)NC(=O)[C@H](Cc1c[nH]c3ccc(F)cc13)NC(=O)CNC(=O)[C@H](CCCCN)NC(=O)CCSC2` [Compound 197] ([Mpa]KG[Trp(5-F)][Trp(5-F)]DHYPC-NH2; linker 1-10 via X35) the IC50 was 21 to 50 µM. With `NCCCC[C@@H]1NC(=O)CCSCc2cccc(c2)CSC[C@@H](C(N)=O)NC(=O)[C@@H]2CCCN2C(=O)[C@H](Cc2ccc(O)cc2)NC(=O)[C@@H](Cc2cnc[nH]2)NC(=O)[C@H](CC(=O)O)NC(=O)[C@H](Cc2c[nH]c3ccc(F)cc23)NC(=O)[C@H](Cc2c[nH]c3ccc(F)cc23)NC(=O)CNC1=O` [Compound 163] ([Mpa]KG[Trp(5-F)][Trp(5-F)]D[dH]YPC-NH2; linker 1-10 via mXylylene) the IC50 was 21 to 50 µM.

Each molecule was assayed against PCSK9 (Homo sapiens (Human), UniProt Q8NBP7) (assay: PCSK9 Alexa FRET Standard assay (displacement of AlexaFluor647 tagged cyclic peptide Reagent A)). Details: PCSK9 Alexa FRET Standard assay, 0.5 nM PCSK9, 20 nM AF cyclic peptide Reagent A; read-out: IC50.
PCSK9, sequence (Q8NBP7 153-692): as the sequence (Q8NBP7 153-692) above
Type: binding
In short: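 TR-FRET displacement: 0.5 nM biotinylated PCSK9 with 1.25 nM Strep-Eu and 20 nM AlexaFluor-tagged cyclic peptide (final) in 50 mM HEPES pH 7.4, 0.15 M NaCl, 5 mM CaCl2, 0.01% BSA, 0.01% P20, ≥2 h at room temperature. IC50 from sigmoidal fit, converted to Ki via peptide KD; falling Eu counts flagged false positives.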
Work on `COc1ccc(C[C@@H]2NC(=O)[C@H]([C@H](C)O)NC(=O)[C@@H]3C[C@H](F)CN3C(=O)[C@H](Cc3c[nH]c4cc(F)ccc34)NC(=O)[C@H](Cc3c[nH]c4ccc(F)cc34)NC(=O)[C@@H](C)NC(=O)CCCCCNC(=O)c3ccc(cc3)C[C@@H](C(N)=O)NC(=O)[C@]3(C)CCCN3C2=O)cc1` [Compound 057] ([Ahx][dA][Trp(5-F)][Trp(6-F)][Pro(cis-4-F)][aThr]Y(Me)[αMeP][Phe(4-COOH)]-NH2; lactam N-9) yielded an IC50 of 21 to 50 µM. `COc1ccc(C[C@@H]2NC(=O)[C@@H]3CCCCCCCO[C@H]4C[C@@H](C(=O)N3)N(C4)C(=O)[C@H](Cc3c[nH]c4ccc(F)cc34)NC(=O)[C@H](Cc3c[nH]c4ccc(F)cc34)NC(=O)[C@@H](C)NC(=O)[C@H](CCCCN)NC(=O)CCSCc3cccc(c3)CSC[C@@H](C(N)=O)NC(=O)[C@]3(C)CCCN3C2=O)cc1` [Compound 511] gave an IC50 of 0.00011 to 0.1 µM.
